Measured values as given in the Kinase Knowledgebase extract (Sharma et al. 2016).
pIC50: −log10 of the molar value.

Molecular target: MAPK14 (UniProt Q16539)
Experiment: Inhibition of MAPK14 Kinase Activity

Sequence of MAPK14 (Q16539 whole entry, looked up): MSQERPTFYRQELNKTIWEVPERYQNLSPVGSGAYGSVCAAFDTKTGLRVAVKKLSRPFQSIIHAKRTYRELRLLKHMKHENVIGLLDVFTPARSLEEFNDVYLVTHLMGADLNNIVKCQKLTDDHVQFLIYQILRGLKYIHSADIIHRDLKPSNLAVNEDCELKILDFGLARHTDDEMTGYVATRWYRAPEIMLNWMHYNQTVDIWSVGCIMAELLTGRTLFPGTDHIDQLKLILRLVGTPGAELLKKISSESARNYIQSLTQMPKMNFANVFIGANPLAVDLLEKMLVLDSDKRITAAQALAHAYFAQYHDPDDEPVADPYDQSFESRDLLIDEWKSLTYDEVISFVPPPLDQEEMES

| pIC50 | Compound |
| --- | --- |
| > 5.00 | CCNC(=O)Nc1cc(C(=O)NCC(C)(C)C)ccc1-c1cc(C(=O)NC2CC2)ccc1C |
| > 5.00 | COCOc1cc(C(=O)N[C@H](C)C(C)C)ccc1-c1cc(C(=O)NC2CC2)cc(F)c1C |
| > 5.00 | COc1cc(C(=O)NCC2CC2)ccc1-c1cc(C(=O)NC2CC2)cc(F)c1C |
| > 5.00 | COc1cc(C(=O)N[C@H](C)C(C)C)ccc1-c1cc(C(=O)NC2CC2)cc(F)c1C |
| > 5.00 | COCOc1cc(C(=O)NCc2ccc(OC)cc2)ccc1-c1cc(C(=O)NC2CC2)cc(F)c1C |
| > 5.00 | COCOc1cc(C(=O)N[C@H](C)C(C)(C)C)ccc1-c1cc(C(=O)NC2CC2)cc(F)c1C |
| > 5.00 | CCNC(=O)CCCOc1cc(C(=O)NCC(C)(C)C)ccc1-c1cc(C(=O)NC2CC2)cc(F)c1C |
| > 5.00 | Cc1c(F)cc(C(=O)NC2CC2)cc1-c1ccc(C(=O)NCC(C)(C)C)cc1OCCCCO |
| > 5.00 | CCCOc1cc(C(=O)NCC(C)(C)C)ccc1-c1cc(C(=O)NC2CC2)cc(F)c1C |
| > 5.00 | Cc1c(F)cc(C(=O)NC2CC2)cc1-c1ccc(C(=O)N[C@H](C)C(C)(C)C)cc1O |
| > 5.00 | Cc1c(F)cc(C(=O)NC2CC2)cc1-c1ccc(C(=O)NCC(C)(C)C)cc1OCCCN(C)C |
| > 5.00 | COc1cc(C(=O)NCC(C)C)ccc1-c1cc(C(=O)NC2CC2)cc(F)c1C |
| > 5.00 | Cc1ccc(C(=O)NC2CC2)cc1-c1ccc(C(=O)NCC(C)(C)C)cc1OCCCNCCO |
| > 5.00 | COCOc1cc(C(=O)NCC(C)C)ccc1-c1cc(C(=O)NC2CC2)cc(F)c1C |
| > 5.00 | COc1ccc(CNC(=O)c2ccc(-c3cc(C(=O)NC4CC4)cc(F)c3C)c(OC)c2)cc1 |

Continued, compound first:

| Compound | pIC50 |
| --- | --- |
| Cc1ccc(C(=O)NC2CC2)cc1-c1ccc(C(=O)NCC(C)(C)C)cc1OCCCN(C)C(C)C | > 5.00 |
| Cc1c(F)cc(C(=O)NC2CC2)cc1-c1ccc(C(=O)NCC(C)(C)C)cc1OCCN1CCOCC1 | > 5.00 |
| COc1cc(C(=O)NCC(C)(C)C)ccc1-c1cc(C(=O)NC2CC2)cc(F)c1C | > 5.00 |
| CC(=O)Nc1cc(C(=O)NCC(C)(C)C)ccc1-c1cc(C(=O)NC2CC2)ccc1C | > 5.00 |
| CCC(=O)Nc1cc(C(=O)NCC(C)(C)C)ccc1-c1cc(C(=O)NC2CC2)ccc1C | > 5.00 |
| Cc1ccc(C(=O)NC2CC2)cc1-c1ccc(C(=O)NCC(C)(C)C)cc1OCCCNC(C)C | > 5.00 |
| Cc1ccc(C(=O)NC2CC2)cc1-c1ccc(C(=O)NCC(C)(C)C)cc1OCCCN1CCOCC1 | > 5.00 |
| CCN(CC)CCCOc1cc(C(=O)NCC(C)(C)C)ccc1-c1cc(C(=O)NC2CC2)ccc1C | > 5.00 |
| COCOc1cc(C(=O)NCC2CC2)ccc1-c1cc(C(=O)NC2CC2)cc(F)c1C | > 5.00 |
| Cc1c(F)cc(C(=O)NC2CC2)cc1-c1ccc(C(=O)NCC(C)(C)C)cc1OCCCC(=O)O | > 5.00 |
| COc1cc(C(=O)N[C@H](C)C(C)(C)C)ccc1-c1cc(C(=O)NC2CC2)cc(F)c1C | > 5.00 |
| Cc1c(F)cc(C(=O)NC2CC2)cc1-c1ccc(C(=O)NCC(C)(C)C)cc1O | > 5.00 |
| Cc1c(F)cc(C(=O)NC2CC2)cc1-c1ccc(C(=O)NCC2CC2)cc1OCCN(C)C | > 5.00 |
| COCOc1cc(C(=O)NCC(C)(C)C)ccc1-c1cc(C(=O)NC2CC2)cc(F)c1C | > 5.00 |
| Cc1c(F)cc(C(=O)NC2CC2)cc1-c1ccc(C(=O)NCC(C)(C)C)cc1OCCCC(=O)N(C)C | > 5.00 |
| Cc1ccc(C(=O)NC2CC2)cc1-c1ccc(C(=O)NCC(C)(C)C)cc1OCCCN1CCCC1 | > 5.00 |
| Cc1ccc(C(=O)NC2CC2)cc1-c1ccc(C(=O)NCC(C)(C)C)cc1NS(C)(=O)=O | > 5.00 |

| Compound | pIC50 |
| --- | --- |
| CNC(=O)CCCOc1cc(C(=O)NCC(C)(C)C)ccc1-c1cc(C(=O)NC2CC2)cc(F)c1C | > 5.00 |
| Cc1ccc(C(=O)NC2CC2)cc1-c1ccc(C(=O)NCC(C)(C)C)cc1OCC(O)CO (stereo not drawn) | > 5.00 |
| Cc1c(F)cc(C(=O)NC2CC2)cc1-c1ccc(C(=O)NCC(C)(C)C)cc1OCC(=O)N1CCOCC1 | > 5.00 |
| COc1ccc(CNC(=O)c2ccc(-c3cc(C(=O)NC4CC4)cc(F)c3C)c(O)c2)cc1 | > 5.00 |
| Cc1c(F)cc(C(=O)NC2CC2)cc1-c1ccc(C(=O)NCC(C)(C)C)cc1OCCNS(C)(=O)=O | > 5.00 |
| Cc1c(F)cc(C(=O)NC2CC2)cc1-c1ccc(C(=O)NCC2CC2)cc1O | > 5.00 |
| Cc1c(F)cc(C(=O)NC2CC2)cc1-c1ccc(C(=O)NCC(C)(C)C)cc1OCCCC(=O)N1CCCC1 | > 5.00 |
| Cc1c(F)cc(C(=O)NC2CC2)cc1-c1ccc(C(=O)NCC(C)C)cc1O | > 5.00 |
| Cc1c(F)cc(C(=O)NC2CC2)cc1-c1ccc(C(=O)NCC(C)(C)C)cc1CNCC(C)(C)C | > 5.00 |
| Cc1c(F)cc(C(=O)NC2CC2)cc1-c1ccc(C(=O)NCC(C)(C)C)cc1OCCCC(N)=O | > 5.00 |
| Cc1c(F)cc(C(=O)NC2CC2)cc1-c1ccc(C(=O)N[C@H](C)C(C)C)cc1O | > 5.00 |
| Cc1ccc(CNC(=O)c2ccc(-c3cc(C(=O)NC4CC4)cc(F)c3C)c(O)c2)cc1 | > 5.00 |
| Cc1c(F)cc(C(=O)NC2CC2)cc1-c1ccc(C(=O)NCC(C)(C)C)cc1OCCCC(=O)N1CCOCC1 | > 5.00 |
| Cc1ccc(C(=O)NC2CC2)cc1-c1ccc(C(=O)NCC(C)(C)C)cc1N | > 5.00 |
| Cc1c(F)cc(C(=O)NC2CC2)cc1-c1ccc(C(=O)NCC(C)(C)C)cc1CO | > 5.00 |
| Cc1c(F)cc(C(=O)NC2CC2)cc1-c1ccc(C(=O)NCC(C)(C)C)cc1OCCCc1nnco1 | > 5.00 |
